From patent US6995182B2, “1-sulfonyl pyrrolidine derivatives” (Hoffmann-La Roche Inc., priority 2000, dated 2006) come the findings set out here.

A word on the melting point: it is the temperature, or range, at which the solid turns liquid.

In turn, `Cc1ccc(S(=O)(=O)N2[C@@H](C(=O)NCc3cccnc3)CC[C@H]2c2ccc(F)cc2)cc1.Cl` (racemic) gave a melting point of 186 °C.
On to `COC(=O)[C@H]1CC[C@@H](c2ccc(F)cc2)N1S(=O)(=O)c1ccc(C)cc1` (racemic) [Example 1, (2RS,5SR)-5-(4-Fluoro-phenyl)-1-(toluene-4-sulfonyl)-pyrrolidine-2-carboxylic acid methyl ester], for which the melting point was 91 °C.
The result for `Cc1ccc(S(=O)(=O)N2[C@@H](CO)CC[C@H]2c2ccc(F)cc2)cc1` (racemic) [Example 2, (2RS,5SR)-[5-(4-Fluoro-phenyl)-1-(toluene-4-sulfonyl)-pyrrolidin-2-yl]-methanol] reads 82 °C.
`Cc1ccc(S(=O)(=O)N2[C@@H](C(N)=O)CC[C@H]2c2ccc(F)cc2)cc1` (racemic) [Example 3, (2RS,5SR)-5-(4-Fluoro-phenyl)-1-(toluene-4-sulfonyl)-pyrrolidine-2-carboxylic acid amide] gave a melting point of 137 °C.
Take `Cc1ccc(S(=O)(=O)N2[C@@H](C(=N)NO)CC[C@H]2c2ccc(F)cc2)cc1` (racemic) [Example 7, (2RS,5SR)-5-(4-Fluoro-phenyl)-N-hydroxy-1-(toluene-4-sulfonyl)-pyrrolidine-2-carboxamidine]: the melting point was 217 °C.
`COC[C@@H]1CC[C@H](c2ccc(F)cc2)N1S(=O)(=O)c1ccc(C)cc1` (racemic) [Example 8, (2RS,5SR)-2-(4-Fluoro-phenyl)-5-methoxymethyl-1-(toluene-4-sulfonyl)-pyrrolidine] showed a melting point of 152 °C.
On to `CC(=O)NC[C@H]1CC[C@@H](c2ccc(F)cc2)N1S(=O)(=O)c1ccc(C)cc1` (racemic) [Example 9, (2RS,5SR)-N-[5-(4-Fluoro-phenyl)-1-(toluene-4-sulfonyl)-pyrrolidin-2-yl-methyl]-acetamide], for which the melting point was found to be 117 °C.
`Cc1ccc(S(=O)(=O)N2[C@@H](CC#N)CC[C@H]2c2ccc(F)cc2)cc1` (racemic) [Example 10, (2RS,5SR)-[5-(4-Fluoro-phenyl)-1-(toluene-4-sulfonyl)-pyrrolidin-2-yl]-acetonitrile] yielded a melting point of 116 °C.
The same measure for `Cc1ccc(S(=O)(=O)N2[C@@H](c3ncon3)CC[C@H]2c2ccc(F)cc2)cc1` (racemic) [Example 14, (2RS,5SR)-3-[5-(4-Fluoro-phenyl)-1-(toluene-4-sulfonyl)-pyrrolidin-2-yl]-[1,2,4]oxadiazole]: 165 °C.
In turn, `CCC(=O)NC[C@H]1CC[C@@H](c2ccc(F)cc2)N1S(=O)(=O)c1ccc(C)cc1` (racemic) [Example 15, (2RS,5SR)-N-[5-(4-Fluoro-phenyl)-1-(toluene-4-sulfonyl)-pyrrolidin-2-yl-methyl]-propionamide] gave a melting point of 142 °C.
The result for `Cc1ccc(S(=O)(=O)N2[C@@H](CCNC(=O)c3ccccc3)CC[C@H]2c2ccc(F)cc2)cc1` (racemic) [Example 18, (2RS,5SR)-N-{2-[5-(4-Fluoro-phenyl)-1-(toluene-4-sulfonyl)-pyrrolidin-2-yl]-ethyl}-benzamide] reads 60 °C; that for `CC(=O)NCC[C@H]1CC[C@@H](c2ccc(F)cc2)N1S(=O)(=O)c1ccc(C)cc1` (racemic) [Example 20, (2RS,5SR)-N-{2-[5-(4-Fluoro-phenyl)-1-(toluene-4-sulfonyl)-pyrrolidin-2-yl]-ethyl}-acetamide], 124 °C.
`Cc1ccc(S(=O)(=O)N2[C@@H](c3nc(C)no3)CC[C@H]2c2ccc(F)cc2)cc1` (racemic) [Example 25, (2RS,5SR)-5-[5-(4-Fluoro-phenyl)-1-(toluene-4-sulfonyl)-pyrrolidin-2-yl]-3-methyl-[1,2,4]oxadiazole] registered a melting point of 128 °C.
`Cc1ccc(S(=O)(=O)N2[C@@H](c3ncn(C)n3)CC[C@H]2c2ccc(F)cc2)cc1` (racemic) [Example 26, (2RS,5SR)-3-[5-(4-Fluoro-phenyl)-1-(toluene-4-sulfonyl)-pyrrolidin-2-yl]-1-methyl-1H-[1,2,4]triazole] gave a melting point of 160 °C.
In turn, `Cc1ccc(S(=O)(=O)N2[C@@H](c3nnn(C)n3)CC[C@H]2c2ccc(F)cc2)cc1` (racemic) [Example 27, (2RS,5SR)-5-[5-(4-Fluoro-phenyl)-1-(toluene-4-sulfonyl)-pyrrolidin-2-yl]-2-methyl-2H-tetrazole] had a melting point of 150 °C.
Molecule `Cc1ccc(S(=O)(=O)N2[C@@H](CCC(N)=O)CC[C@H]2c2ccc(F)cc2)cc1` (racemic) [Example 29, (2RS,5SR)-3-[5-(4-Fluoro-phenyl)-1-(toluene-4-sulfonyl)-pyrrolidin-2-yl]-propionamide] yielded a melting point of 136 °C.
Take `Cc1ccc(S(=O)(=O)N2[C@@H](CCc3nc(C)no3)CC[C@H]2c2ccc(F)cc2)cc1` (racemic) [Example 30, (2RS,5SR)-5-{2-[5-(4-Fluoro-phenyl)-1-(toluene-4-sulfonyl)-pyrrolidin-2-yl]-ethyl}-3-methyl-[1,2,4]oxadiazole]: the melting point is 91 °C.
For the molecule `Cc1ccc(S(=O)(=O)N2[C@@H](CCC#N)CC[C@H]2c2ccc(F)cc2)cc1` (racemic) [Example 31, (2RS,5SR)-3-[5-(4-Fluoro-phenyl)-1-(toluene-4-sulfonyl)-pyrrolidin-2-yl]-propionitrile], the melting point turned out to be 86 °C.
Regarding `Cc1ccc(S(=O)(=O)N2[C@@H](CCC(=N)NO)CC[C@H]2c2ccc(F)cc2)cc1` (racemic) [Example 34, (2RS,5SR)-3-[5-(4-Fluoro-phenyl)-1-(toluene-4-sulfonyl)-pyrrolidin-2-yl]-N-hydroxy-propionamidine], the melting point turned out to be 134 °C.
For the molecule `Cc1ccc(S(=O)(=O)N2[C@@H](CNC(=O)C3CCCC3)CC[C@H]2c2ccc(F)cc2)cc1` (racemic) [Example 37, (2RS,5SR)-Cyclopentanecarboxylic acid [5-(4-fluoro-phenyl)-1-(toluene-4-sulfonyl)-pyrrolidin-2-yl-methyl]-amide], the melting point came to 147 °C.
Take `Cc1ccc(S(=O)(=O)N2[C@@H](CNC(=O)C(C)(C)C)CC[C@H]2c2ccc(F)cc2)cc1` (racemic) [Example 38, (2RS,5SR)-N-[5-(4-Fluoro-phenyl)-1-(toluene-4-sulfonyl)-pyrrolidin-2-yl-methyl]-2,2-dimethyl-propionamide]: the melting point was 128 °C.
The same measure for `Cc1ccc(S(=O)(=O)N2[C@@H](CCCO)CC[C@@H]2c2ccc(F)cc2)cc1` (racemic) [Example 44, (2RS,5RS)-3-[5-(4-Fluoro-phenyl)-1-(toluene-4-sulfonyl)-pyrrolidin-2-yl]-propan-1-ol]: 93 °C; for `Cc1ccc(S(=O)(=O)N2[C@H](CCCC#N)CC[C@@H]2c2ccc(F)cc2)cc1` (racemic) [Example 45, (2RS,5RS)-4-[5-(4-Fluoro-phenyl)-1-(toluene-4-sulfonyl)-pyrrolidin-2-yl]-butyronitrile]: 74 °C; for `Cc1ccc(S(=O)(=O)N2[C@H](CCCc3nnn(C)n3)CC[C@@H]2c2ccc(F)cc2)cc1` (racemic) [Example 49, (2RS,5RS)-5-{3-[5-(4-Fluoro-phenyl)-1-(toluene-4-sulfonyl)-pyrrolidin-2-yl]-propyl}-2-methyl-2H-tetrazole]: 107 °C.
`Cc1ccc(S(=O)(=O)N2[C@H](CCCc3nnnn3C)CC[C@@H]2c2ccc(F)cc2)cc1` (racemic) [Example 50, (2RS,5RS)-5-{3-[5-(4-Fluoro-phenyl)-1-(toluene-4-sulfonyl)-pyrrolidin-2-yl]-propyl}-1-methyl-1H-tetrazole] displayed a melting point of 153 °C.
The result for `Cc1ccc(S(=O)(=O)N2[C@H](CCCCC#N)CC[C@@H]2c2ccc(F)cc2)cc1` (racemic) [Example 51, (2RS,5RS)-5-[5-(4-Fluoro-phenyl)-1-(toluene-4-sulfonyl)-pyrrolidin-2-yl]-pentanenitrile] reads 79 °C; that for `Cc1ccc(S(=O)(=O)N2[C@H](CCCCc3nnnn3C)CC[C@@H]2c2ccc(F)cc2)cc1` (racemic) [Example 54, (2RS,5RS)-5-{4-[5-(4-Fluoro-phenyl)-1-(toluene-4-sulfonyl)-pyrrolidin-2-yl]-butyl}-1-methyl-1H-tetrazole], 120 °C.
In the case of `CC(=O)NCC[C@H]1CC[C@@H](c2ccc(F)cc2)N1S(=O)(=O)c1ccc(Cl)cc1` (racemic) [Example 56, (2RS,5SR)-N-{2-[1-(4-Chloro-benzenesulfonyl)-5-(4-fluoro-phenyl)-pyrrolidin-2-yl]-ethyl}-acetamide], the melting point worked out at 103 °C.
The same measure for `O=C(NCC[C@H]1CC[C@@H](c2ccc(F)cc2)N1S(=O)(=O)c1ccc(Cl)cc1)C1CC1` (racemic) [Example 57, (2RS,5SR)-Cyclopropanecarboxylic acid {2-[1-(4-chloro-benzenesulfonyl)-5-(4-fluoro-phenyl)-pyrrolidin-2-yl]-ethyl}-amide]: 80 °C.
In turn, `CC(=O)NCCC[C@@H]1CC[C@H](c2ccc(F)cc2)N1S(=O)(=O)c1ccc(Cl)cc1` (racemic) [Example 66, (2RS,5RS)-N-{3-[1-(4-Chloro-benzenesulfonyl)-5-(4-fluoro-phenyl)-pyrrolidin-2-yl]-propyl}-acetamide] yielded a melting point of 49 °C.
In turn, `Cc1ccc(S(=O)(=O)N2[C@H](CCCc3nc(C)no3)CC[C@@H]2c2ccc(F)cc2)cc1` (racemic) [Example 71, (2RS,5RS)-5-{3-[5-(4-Fluoro-phenyl)-1-(toluene-4-sulfonyl)-pyrrolidin-2-yl]-propyl}-3-methyl-[1,2,4]oxadiazole] showed a melting point of 91 °C.
For `Cn1nnc(CC[C@H]2CC[C@@H](c3ccc(F)cc3)N2S(=O)(=O)c2ccc(Cl)cc2)n1` (racemic) [Example 73, (2RS,5SR)-5-{2-[1-(4-Chloro-benzenesulfonyl)-5-(4-fluoro-phenyl)-pyrrolidin-2-yl]-ethyl}-2-methyl-2H-tetrazole], the melting point came out at 122 °C.
The result for `Cc1ccc(S(=O)(=O)N2[C@@H](CCc3nc(C4CC4)no3)CC[C@H]2c2ccc(F)cc2)cc1` (racemic) [Example 75, (2RS,5SR)-3-Cyclopropyl-5-{2-[5-(4-fluoro-phenyl)-1-(toluene-4-sulfonyl)-pyrrolidin-2-yl]-ethyl}-[1,2,4]oxadiazole] reads 129 °C.
